The target of experiment [1] is T1, His tagged PTPN2 (TC45) protein (Homo sapiens, UniProt P17706).
T1 construct: made in house
T1 sequence (P17706 with tags, fused parts or gaps isoform P17706-2): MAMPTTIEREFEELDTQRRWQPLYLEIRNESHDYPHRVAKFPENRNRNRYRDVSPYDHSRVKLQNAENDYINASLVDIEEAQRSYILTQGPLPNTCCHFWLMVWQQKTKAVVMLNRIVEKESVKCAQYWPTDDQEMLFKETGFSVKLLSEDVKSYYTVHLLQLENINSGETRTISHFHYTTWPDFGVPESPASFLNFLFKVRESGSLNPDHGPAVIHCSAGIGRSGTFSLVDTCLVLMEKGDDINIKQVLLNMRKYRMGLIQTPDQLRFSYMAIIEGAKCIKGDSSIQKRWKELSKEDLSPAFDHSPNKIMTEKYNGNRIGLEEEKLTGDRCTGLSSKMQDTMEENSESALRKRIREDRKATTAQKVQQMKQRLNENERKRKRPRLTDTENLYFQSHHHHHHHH
The experiment can be described thus: Mobility shift assay (MSA) for potency of PTPN2 inhibitors. Type of experiment: biochemical. The settings on record: read-out: PTPN2 MSA IC50. The gist of the method: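 IC50 values were derived from % inhibition of substrate conversion, measured by microfluidic mobility shift (ex 488/em 530) after quenching. The fluorescent phosphotyrosine insulin-receptor peptide ([…]) reacted for 10 min at room temperature with 0.5 nM His-tagged TC45 PTPN2 that had been preincubated 10 min with compound (12 points, 1:3). Buffer was HEPES pH 7.5 with EGTA, EDTA, Tween 20 and DTT.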

Experiment [2] relates to B16F10 mouse melanoma cells. The experiment can be described thus: B16F10 IFNγ-induced cellular growth inhibition assay. Type of experiment: cell-based. The settings on record: Mus musculus, B16-F10, 33 μM compound. The protocol: B16F10 mouse melanoma cells (ATCC Cat ^#CRL-6475, Manassas, Va.) were seeded at a density of 500 cells per well in a 384-well clear bottom plate (Corning Cat^# 3765, Corning, N.Y.) in 25 μL total volume of DMEM+10% FBS (Sigma Cat ^#D6429 and Sigma Cat ^#F4135, St. Louis, Mo.). Cells were allowed to adhere overnight at 37° C.+5% CO2. On the following day, 12.5 μL of mouse IFNγ (RD systems Cat485-MI/CF, Minneapolis, Minn.) was added to half of the plate (columns 13-24) at a concentration of 2 ng/mL for a final assay concentration of 0.5 ng/mL of IFNγ. Media only (12.5 μL of DMEM+10% FBS) was added to the remainder of the plate (columns 1-12). Next, compounds resuspended in DMSO (Sigma Cat ^#D2650) at 100 mM were diluted in semi-log dilutions in DMSO ranging from 100 mM to 0.001 mM and DMSO only controls were included. The compound/DMSO dilutions were further diluted 1:250 in DMEM+10% FBS, and 12.5 μL of these dilutions were added in triplicates to cells of both treatment arms (with and without IFNγ). Final compound concentrations ranged from 100 μM to 0.001 μM with a final DMSO concentration of 0.1%. Compounds were only dosed in the inner 240 wells, avoiding the outer 2-well perimeter of the plate to minimize edge effects. Finally, the plate was loaded into an IncuCyte® S3 Live Cell Analysis System (Essen Bioscience-Sartorius, Ann Arbor, Mich.) maintained in a 37° C.+5% CO2 incubator, allowed to equilibrate for 2 hours, and imaged every 6 hours for 5 days. Confluence over time for compound dilutions in the presence and absence of IFNγ was measured. Growth inhibition values were obtained when the “DMSO/no IFNγ” control reached confluence >95%. At these time points, the percent growth inhibition of each compound at the indicated concentration was calculated relative to the “DMSO/with IFNγ” control.

Where [3] appears, read: +0.5 ng/mL IFNγ, relative to DMSO control, read-out: % B16F10 growth inhibition (+0.5 ng/mL IFNγ) @ 33 μM.
Where [4] appears, read: no IFNγ, read-out: % B16F10 growth inhibition (no IFNγ) @ 33 μM.

Where two headings read alike, the source gives them in different places. Bounds are passed on as bounds.

On to `O=C1CN(c2c(O)cc3ccc(NCCC(F)(F)F)cc3c2F)S(=O)(=O)N1` [Compound 169, 5-{1-fluoro-3-hydroxy-7-[(3,3,3-trifluoropropyl)amino]naphthalen-2-yl}-1λ^6,2,5-thiadiazolidine-1,1,3-trione], for which, in experiment [1], the concentration for half-maximal inhibition (IC50) lay in the range of 1 to 10 nM. Also, the inhibition at 33 µM in experiment [2] (setting [3]) is more than 90%; in experiment [2] (setting [4]), less than 25%.
For the compound `N#CCCCOc1ccc2cc(O)c(N3CC(=O)NS3(=O)=O)c(F)c2c1` [Compound 129, 4-{[8-fluoro-6-hydroxy-7-(1,1,4-trioxo-1λ^6,2,5-thiadiazolidin-2-yl)naphthalen-2-yl]oxy}butanenitrile], the IC50 in experiment [1] is less than 1 nM. For the same compound, the values for the inhibition at 33 µM in experiment [2] (setting [3]) and in experiment [2] (setting [4]) were more than 90% and less than 25%, respectively.
On to `O=C1CN(c2c(O)cc3ccc(OCC4CC4)cc3c2F)S(=O)(=O)N1` [Compound 250, 5-[7-(cyclopropylmethoxy)-1-fluoro-3-hydroxynaphthalen-2-yl]-1λ^6,2,5-thiadiazolidine-1,1,3-trione], for which the IC50 in experiment [1] lay in the range of 1 to 10 nM. Also, the values for the inhibition at 33 µM in experiment [2] (setting [3]) and in experiment [2] (setting [4]) were 60 to 90% and less than 25%, respectively.
Taken in the same sequence, the figures for `COc1ccc(-c2ccc3cc(O)c(N4CC(=O)NS4(=O)=O)c(F)c3c2)s1` [Compound 227, 5-[1-fluoro-3-hydroxy-7-(5-methoxythiophen-2-yl)naphthalen-2-yl]-1λ^6,2,5-thiadiazolidine-1,1,3-trione] were 1 to 10 nM, 60 to 90% and less than 25%.
Taken in the same sequence, the figures for `O=C1CN(c2c(O)cc3ccc(OCCOC4CCC4)cc3c2F)S(=O)(=O)N1` [Compound 214, 5-{7-[2-(cyclobutyloxy)ethoxy]-1-fluoro-3-hydroxynaphthalen-2-yl}-1λ^6,2,5-thiadiazolidine-1,1,3-trione] were 1 to 10 nM, 60 to 90% and less than 25%.
Taken in the same sequence, the figures for `O=C1CN(c2c(O)cc3ccc(C4CCNCC4)cc3c2F)S(=O)(=O)N1` [Compound 299, 5-[1-fluoro-3-hydroxy-7-(piperidin-4-yl)naphthalen-2-yl]-1λ^6,2,5-thiadiazolidine-1,1,3-trione] were 1 to 10 nM, more than 90% and less than 25%.
For `[2H]C1([2H])C(=O)NS(=O)(=O)N1c1c(O)cc2ccc(OC)cc2c1F` [Compound 123, 5-(1-fluoro-3-hydroxy-7-methoxynaphthalen-2-yl)(4,4-^2H2)-1λ^6,2,5-thiadiazolidine-1,1,3-trione], the half-maximal inhibitory concentration (IC50) in experiment [1] was in the range of 1 to 10 nM. The inhibition at 33 µM is 60 to 90% in experiment [2] (setting [3]) and less than 25% in experiment [2] (setting [4]).
With `CC(C)(CN)CCOc1ccc2cc(O)c(N3CC(=O)NS3(=O)=O)c(F)c2c1` [Compound 176, 5-[7-(4-amino-3,3-dimethylbutoxy)-1-fluoro-3-hydroxynaphthalen-2-yl]-1λ^6,2,5-thiadiazolidine-1,1,3-trione], the half-maximal inhibitory concentration (IC50) in experiment [1] fell in the range of 1 to 10 nM. For the same compound, the inhibition at 33 µM in experiment [2] (setting [3]) is more than 90%; in experiment [2] (setting [4]) it was less than 25%.
Taken in the same sequence, the figures for `O=C1CN(c2c(O)cc3ccc(C4=CCN(S(=O)(=O)C5CC5)CC4)cc3c2F)S(=O)(=O)N1` [Compound 297, 5-{7-[1-(cyclopropanesulfonyl)-1,2,3,6-tetrahydropyridin-4-yl]-1-fluoro-3-hydroxynaphthalen-2-yl}-1λ^6,2,5-thiadiazolidine-1,1,3-trione] were 1 to 10 nM, 25 to 59% and less than 25%.
On the same counts, the results for `COCCNc1ccc2cc(O)c(N3CC(=O)NS3(=O)=O)c(F)c2c1` [Compound 179, 5-{1-fluoro-3-hydroxy-7-[(2-methoxyethyl)amino]naphthalen-2-yl}-1λ^6,2,5-thiadiazolidine-1,1,3-trione] are 10 to 100 nM, more than 90% and less than 25%.
Taken in the same sequence, the figures for `O=C1CN(c2c(O)cc3ccc(NCCN4CCC4)cc3c2F)S(=O)(=O)N1` [Compound 177, 5-(7-{[2-(azetidin-1-yl)ethyl]amino}-1-fluoro-3-hydroxynaphthalen-2-yl)-1λ^6,2,5-thiadiazolidine-1,1,3-trione] were 1 to 10 nM, more than 90% and less than 25%.
Consider `CC(C)CNc1ccc2cc(O)c(N3CC(=O)NS3(=O)=O)c(F)c2c1` [Compound 201, 5-{1-fluoro-3-hydroxy-7-[(2-methylpropyl)amino]naphthalen-2-yl}-1λ^6,2,5-thiadiazolidine-1,1,3-trione], for which the half-inhibitory concentration (IC50) in experiment [1] lay in the range of 1 to 10 nM. The inhibition at 33 µM was 60 to 90% in experiment [2] (setting [3]) and less than 25% in experiment [2] (setting [4]).
On the same counts, the results for `CC(C)CCNc1ccc2cc(O)c(N3CC(=O)NS3(=O)=O)c(F)c2c1` [Compound 200, 5-{1-fluoro-3-hydroxy-7-[(3-methylbutyl)amino]naphthalen-2-yl}-1λ^6,2,5-thiadiazolidine-1,1,3-trione] are 1 to 10 nM, more than 90% and less than 25%.
On to `O=C1CN(c2c(O)cc3ccc(O)cc3c2F)S(=O)(=O)N1` [Compound 276, 5-(1-fluoro-3,7-dihydroxynaphthalen-2-yl)-1λ^6,2,5-thiadiazolidine-1,1,3-trione], for which the IC50 in experiment [1] is 1 to 10 nM. For the same compound, the figures for the inhibition at 33 µM in experiment [2] (setting [3]) and in experiment [2] (setting [4]) were 25 to 59% and less than 25%, respectively.
On the same counts, the results for `O=C1CN(c2c(O)cc3ccc(OCCN4CCOCC4)cc3c2F)S(=O)(=O)N1` [Compound 100, 5-{1-fluoro-3-hydroxy-7-[2-(morpholin-4-yl)ethoxy]naphthalen-2-yl}-1λ^6,2,5-thiadiazolidine-1,1,3-trione] are 1 to 10 nM, more than 90% and less than 25%.
On the same counts, the results for `CC(C)OCCOc1ccc2cc(O)c(N3CC(=O)NS3(=O)=O)c(F)c2c1` [Compound 215, 5-(1-fluoro-3-hydroxy-7-{2-[(propan-2-yl)oxy]ethoxy}naphthalen-2-yl)-1λ^6,2,5-thiadiazolidine-1,1,3-trione] are 1 to 10 nM, 60 to 90% and less than 25%.
Taken in the same sequence, the figures for `CNCC(C)(C)CCOc1ccc2cc(O)c(N3CC(=O)NS3(=O)=O)c(F)c2c1` [Compound 163, 5-{7-[3,3-dimethyl-4-(methylamino)butoxy]-1-fluoro-3-hydroxynaphthalen-2-yl}-1λ^6,2,5-thiadiazolidine-1,1,3-trione] were less than 1 nM, more than 90% and less than 25%.
Turning to `O=C1CN(c2c(O)cc3ccc(OC4CN(S(=O)(=O)C5CC5)C4)cc3c2F)S(=O)(=O)N1` [Compound 178, 5-(7-{[1-(cyclopropanesulfonyl)azetidin-3-yl]oxy}-1-fluoro-3-hydroxynaphthalen-2-yl)-1λ^6,2,5-thiadiazolidine-1,1,3-trione], the IC50 in experiment [1] is 1 to 10 nM. For the same compound, the inhibition at 33 µM in experiment [2] (setting [3]) was 60 to 90%; in experiment [2] (setting [4]), less than 25%.
On the same counts, the results for `CC1(CCOc2ccc3cc(O)c(N4CC(=O)NS4(=O)=O)c(F)c3c2)CC1` [Compound 193, 5-{1-fluoro-3-hydroxy-7-[2-(1-methylcyclopropyl)ethoxy]naphthalen-2-yl}-1λ^6,2,5-thiadiazolidine-1,1,3-trione] are less than 1 nM, 25 to 59% and less than 25%.
